Laboratory results taken from the NIST ThermoML archive (doi:10.1016/j.fluid.2016.08.035).

Key:
[1] = molar heat capacity at constant pressure; xn = mol fraction of the nth substance listed; settings: 101 kPa, Liquid, DSC
[2] = xn = mol fraction of the nth substance listed; settings: 101 kPa, Liquid; for viscosity: Falling or rolling sphere viscometry; for speed of sound: Sing-around technique in a fixed-path interferometer; for mass density: Vibrating tube method

CC12CCC(CC1)C(C)(C)O2 [1,3,3-trimethyl-2-oxabicyclo[2.2.2]octane] + CCCCCCCC
Settings	mass density, [2] [kg/m3]	molar heat capacity at constant pressure, [1] [J/K/mol]	speed of sound, [2] [m/s]	viscosity, [2] [mPa·s]
278.15 K, x1 = 0.1046	738.47	246.2	1263.8	0.77
278.15 K, x1 = 0.199	759.76	246.45	1270.8	0.87
278.15 K, x1 = 0.2987	782.16	246.89	1279.1	1
278.15 K, x1 = 0.4008	805.03	247.59	1288.5	1.17
278.15 K, x1 = 0.4955	826.13	248.46	1297.8	1.36
278.15 K, x1 = 0.5939	847.98	249.62	1308.4	1.62
278.15 K, x1 = 0.6971	870.82	250.95	1320.1	1.99
278.15 K, x1 = 0.7985	893.16	252.64	1332.5	2.49
278.15 K, x1 = 0.8939	914.06	254.3	1344.9	3.14
278.15 K, x1 = 1	937.25	256.14	1359.6	4.21
298.15 K, x1 = 0.1046	722.35	254.53	1180.9	0.6
298.15 K, x1 = 0.199	743.56	255.32	1188.5	0.66
298.15 K, x1 = 0.2987	765.86	256.22	1197.5	0.75
298.15 K, x1 = 0.4008	788.62	257.36	1207.3	0.86
298.15 K, x1 = 0.4955	809.62	258.59	1216.9	0.98
298.15 K, x1 = 0.5939	831.35	260.07	1227.7	1.14
298.15 K, x1 = 0.6971	854.05	261.75	1239.8	1.37
298.15 K, x1 = 0.7985	876.24	263.66	1252.4	1.65
298.15 K, x1 = 0.8939	897.03	265.57	1264.9	2.02
298.15 K, x1 = 1	920.04	267.69	1278.4	2.6
318.15 K, x1 = 0.1046	705.93	263.19	1099.7	0.48
318.15 K, x1 = 0.199	727.08	264.31	1108.1	0.53
318.15 K, x1 = 0.2987	749.32	265.53	1117.9	0.58
318.15 K, x1 = 0.4008	772.01	267	1128.3	0.66
318.15 K, x1 = 0.4955	792.93	268.51	1138.3	0.74
318.15 K, x1 = 0.5939	814.56	270.26	1149.5	0.85
318.15 K, x1 = 0.6971	837.17	272.14	1162.3	1
318.15 K, x1 = 0.7985	859.26	274.24	1175.6	1.18
318.15 K, x1 = 0.8939	879.92	276.39	1188.3	1.4
318.15 K, x1 = 1	902.84	278.65	1201	1.73
338.15 K, x1 = 0.1046	689.16	272.35	1020.2	0.41
338.15 K, x1 = 0.199	710.27	273.81	1029.6	0.44
338.15 K, x1 = 0.2987	732.46	275.37	1040.3	0.48
338.15 K, x1 = 0.4008	755.1	277.18	1051.6	0.54
338.15 K, x1 = 0.4955	775.96	278.93	1062.3	0.6
338.15 K, x1 = 0.5939	797.55	280.96	1073.8	0.68
338.15 K, x1 = 0.6971	820.1	283.13	1087.4	0.78
338.15 K, x1 = 0.7985	842.12	285.45	1101.4	0.9
338.15 K, x1 = 0.8939	862.72	287.81	1114.5	1.05
338.15 K, x1 = 1	885.57	290.33	1126.7	1.27
